test: Inhibition of Influenza A virus sialidase N2

First: CCC(CC)O[C@@H]1OC(C(=O)O)=C[C@H](N)[C@H]1NC(C)=O
Second: CCC(CC)O[C@@H]1C=C(C(=O)O)C[C@H](O)[C@H]1NC(C)=O
The IC50 of the first is 51-fold higher: 770 nM for the first, 15 nM for the second. The second is the more potent here.

First: CC(=O)N[C@H]1[C@H]([C@H](O)[C@H](O)CO)OC(C(=O)O)=C[C@@H]1O [NEU5AC2EN]
Second: CC(=O)N[C@H]1[C@H]([C@H](O)[C@H](O)CO)OC(C(=O)O)=C[C@@H]1NC(=N)N [ZANAMIVIR]
The IC50 of the first is 340-fold higher: 1700 nM for the first, 5 nM for the second.

Going from C=C[C@H]1CC(C(=O)O)=C[C@@H](OC(C)C)[C@@H]1NC(C)=O to C/C=C\[C@@H]1C[C@H](C(=O)O)N[C@H]1[C@@H](NC(C)=O)[C@](C)(CCC)OC, the Ki falls from 45 nM to 0.2 nM (220-fold).

test: Inhibition of Influenza A virus sialidase N2 by fluorometric assay

Going from CCC(CC)O[C@@H]1OC(C(=O)O)=C[C@H](OC(C)=O)[C@H]1NC(C)=O to CCC(CC)O[C@@H]1OC(C(=O)O)=C[C@H](OC)[C@H]1NC(C)=O, the IC50 falls from 5390 nM to 1450 nM (3.7-fold). The second is the more potent here.

Going from C=CCO[C@H]1C=C(C(=O)O)O[C@@H](OC(CC)CC)[C@@H]1NC(C)=O to CCO[C@H]1C=C(C(=O)O)O[C@@H](OC(CC)CC)[C@@H]1NC(C)=O, the IC50 falls from 212000 nM to 28000 nM (7.6-fold). The second is the more potent here.

First: CCC(CC)O[C@@H]1OC(C(=O)O)=C[C@H](O)[C@H]1NC(C)=O
Second: CC(=O)N[C@H]1[C@H]([C@H](O)[C@H](O)CO)OC(C(=O)O)=C[C@@H]1O [NEU5AC2EN]
The IC50 of the first is 33-fold lower: 320 nM for the first, 10500 nM for the second. The first is the more potent here.

Going from CCO[C@H]1C=C(C(=O)O)O[C@@H]([C@H](O)[C@H](O)CO)[C@@H]1NC(C)=O to CC(=O)N[C@H]1[C@H]([C@H](O)[C@H](O)CO)OC(C(=O)O)=C[C@@H]1N, the IC50 falls from 479000 nM to 680 nM (700-fold). The second is the more potent here.

In the case of CC(=O)N[C@H]1[C@H]([C@H](O)[C@H](O)CO)OC(C(=O)O)=C[C@@H]1NC(=N)N [ZANAMIVIR], the IC50 is reported as 12 nM.

— ChEMBL document CHEMBL2169761, “Exploring the interactions of unsaturated glucuronides with influenza virus sialidase” (J Med Chem, 2012)
